Source: patent US10870872B2, “Enzymatic nucleic acid synthesis” (President and Fellows of Harvard College, priority 2016, dated 2020)

Tests used:
[1] = target: T1, TdT (Homo sapiens, UniProt P04053); assay: Screen of nucleotide analogue substrates for TdT-based DNA synthesis (NPU formulation with Apyrase); assay type: biochemical; conditions: for efficiency as substrate of TdT versus natural counterpart: analogues more positively charged than natural counterparts; for behavior with respect to TdT-based DNA synthesis (extension efficiency, rate, extension length distribution): natural nucleotides
Description: In the general scheme of the presently disclosed methods, the distribution of extension length by TdT is important to ensure efficient and reliable encoding of information into DNA. […] The following nucleotide analogues with the NPU formulation which included Apyrase were explored.

[2] = target: T1, TdT; assay: Chemical control of TdT extension by Apyrase on immobilized initiator oligo (PCR, agarose gel); assay type: biochemical; conditions: 0.001 U/μL Apyrase, 1 U/μL TdT, 4 minutes at room temperature
Experimental: According to an exemplary protocol of the present disclosure, an initiator oligonucleotide was first immobilized onto a surface, for example with the use of a 5 prime modified oligonucleotide onto aldehyde functionalized glass slides. After tethering the initiator to a solid support, the surface was treated to neutralize the chemical reactive groups such as aldehydes in this case, and to increase hydrophobicity.
Dilutions of nucleotides in solvents such as water or ethanol of the following concentration and types were prepared:
Each of these nucleotides were printed on an oligo spot with a liquid handling robot followed by printing of the enzymatic mix comprising TdT (Terminal deoxynucleotidyl transferase) and Apyrase. […]
Each of the synthesized DNA strands were released off the solid-support surface, in this exemplary embodiment, enzymatically, by the use of USER (Uracil-Specific Excision Reagent) enzyme which cleaves the uracils that are near the 5 prime distal end of the initial initiator oligonucleotide. These strands were subsequently PCR amplified and the number of synthesized nucleotides were evaluated by two methods: electrophoresis on agarose or PAGE gels for cursory bulk analysis and sequenced with next-generation sequencing platforms such as Illumina, Pacific Bioscience, and/or Oxford Nanopore for quantitative single-molecule analysis. […]

T1 sequence (P04053 whole entry, species assumed): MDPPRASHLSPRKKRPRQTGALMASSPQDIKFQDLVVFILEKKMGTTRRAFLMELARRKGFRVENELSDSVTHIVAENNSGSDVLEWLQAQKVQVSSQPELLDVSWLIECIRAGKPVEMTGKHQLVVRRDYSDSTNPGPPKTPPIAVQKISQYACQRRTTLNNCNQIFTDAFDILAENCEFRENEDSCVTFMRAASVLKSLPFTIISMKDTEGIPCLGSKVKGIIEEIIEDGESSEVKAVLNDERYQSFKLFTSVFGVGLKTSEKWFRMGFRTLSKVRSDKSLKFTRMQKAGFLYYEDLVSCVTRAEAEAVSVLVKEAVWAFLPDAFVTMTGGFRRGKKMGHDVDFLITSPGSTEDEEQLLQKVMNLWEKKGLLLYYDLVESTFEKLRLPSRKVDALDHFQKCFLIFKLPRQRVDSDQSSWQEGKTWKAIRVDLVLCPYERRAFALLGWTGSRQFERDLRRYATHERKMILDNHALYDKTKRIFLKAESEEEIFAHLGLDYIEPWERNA

| Compound | efficiency as substrate of TdT versus natural counterpart [1] | behavior with respect to TdT-based DNA synthesis (extension efficiency, rate, extension length distribution) [1] | other results |
| --- | --- | --- | --- |
| NC/C=C/c1cn(C2CC(O)C(COP(=O)(O)OP(=O)(O)OP(=O)(O)O)O2)c(=O)[nH]c1=O (stereo not drawn) [5-Aminoallyl-dUTP] | far more efficient substrates of TdT | – | – |
| Nc1ccn([C@H]2C[C@H](O)[C@@H](COP(=O)(O)OP(=O)(O)OP(=O)(O)O)O2)c(=O)n1 [dCTP] | – | most optimal behavior | – |
| Nc1ncnc2c1ncn2[C@H]1C[C@H](O)[C@@H](COP(=O)(O)OP(=O)(O)OP(=O)(O)O)O1 [dATP] | – | poorest behavior | – |
| Cc1cn([C@H]2C[C@H](O)[C@@H](COP(=O)(O)OP(=O)(O)OP(=O)(O)O)O2)c(=O)[nH]c1=O [dTTP] | – | poorest behavior | – |
| Apyrase | – | – | effect on average amount of extension by TdT [2]: effectively limited the average amount of extension by TdT |
| NCC#Cc1cn(C2CC(O)C(COP(=O)(O)OP(=O)(O)OP(=O)(O)O)O2)c(=O)[nH]c1=O (stereo not drawn) [5-Propargylamino-dUTP] | far more efficient substrates of TdT | – | – |
